Assay results as given in PubChem BioAssay (NCI).
Values joined by “and” are separate entries in the source; they are usually repeats but may differ in a detail not shown here. Equal entries are not always repeated.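 Results reflect a 48-hour exposure of cells in 96-well plates to compound at five concentrations. At the GI50, growth is halved. At the TGI there is no net growth.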

These molecules were tested on MDA-MB-468 breast (assay: inhibition of tumour cell growth, NCI panel, 48 h).

Compound	GI50	TGI
C=CC(=O)N1CC2(CC(n3nc(-c4ccc5c(cnn5C)c4)c(-c4c(Cl)c(C)cc5[nH]ncc45)c3C)C2)C1	2670 nM	9270 nM
CN(Cc1cnc2nc(N)nc(N)c2n1)c1ccc(C(=O)NC(CCC(=O)O)C(=O)O)cc1Br (stereo not drawn)	< 10 nM	1910 nM
Cc1cc(Cl)nc(N(CCCNc2ccnc3cc(Cl)ccc23)Cc2ccco2)n1	1120 nM	3940 nM
CN1CSC(=S)N(Cc2ccccc2)C1	2020 nM	6030 nM
O=C(Nc1nc2ccccc2s1)Nc1ccc([N+](=O)[O-])cc1Cl	10100 nM	27200 nM
O=C(CN1C(=O)S/C(=C\C(Cl)=C\c2ccccc2)C1=O)NC1C=CS(=O)(=O)C1 (stereo not drawn)	531 nM	2290 nM
CN(CCCNC(=O)CCOCCOCCOCCNC(=O)Cc1ccc2ccc3cccc4ccc1c2c34)CCCNc1cc(-c2ccc3ccccc3c2)nc2ccccc12	509 nM	1030 nM
COc1ccc(/C(C#N)=C2C=C/C(=N/O)c3ccccc3\2)cc1	395 nM	16500 nM
CCn1c(-c2nonc2N)nc2cncc(C(=O)N3CC[C@H](N)C3)c21	4570 nM	24500 nM
O=C1Cc2cc(C(=O)NC3C[C@H]4CC[C@@H](C3)N4S(=O)(=O)CC3CCN(CCCC(F)(F)F)CC3)c(Cl)cc2N1 (stereo partly drawn)	27000 nM	> 100000 nM
O=C1NC(=NCCCc2ccccc2)S/C1=C\c1ccc2ncccc2c1	4370 nM	17400 nM
O=C1/C=C/[C@@H](O)[C@@H]2C[C@@H](O)C[C@H]2/C=C/CCC[C@H](C(F)(F)F)O1	23.3 nM	69.1 nM
N=c1c2c(=N)n3c(nc2nc2n1-c1ccccc1Sc1ccccc1-2)sc1cc(Cl)ccc13	1340 nM	5410 nM
CC1OC(O[C@@H]2[C@H](O)C(CO)OC(O[C@H]3COC(O[C@H]4CC[C@]5(C)[C@H]6CC[C@]78OC[C@@]9(CCC(C)(C)C[C@H]97)[C@H](O)C[C@@]8(C)[C@]6(C)CC[C@H]5C4(C)C)[C@@H](OC4OC(CO)[C@@H](O)[C@@H](O)[C@@H]4O)[C@@H]3O)[C@H]2OC2OC[C@@H](O)[C@@H](O)[C@@H]2O)[C@@H](O)[C@@H](O)[C@H]1O (stereo partly drawn)	2110 nM	4330 nM
COc1ccc2c(OCc3nnc4ccc(-c5ccccc5)nn34)ccnc2c1	3220 nM	> 100000 nM
CCOC(=O)c1cnc2c(C)cccc2c1Nc1ccc(C(C)=O)cc1	26300 nM	> 100000 nM
CSc1ccc2c(c1)C(N1CCN(C)CC1)Cc1ccccc1S2 (stereo not drawn)	1470 nM	3060 nM
COc1nnc2ccc(N3CCC(c4ccc(OCCN5CCN(C)C(=O)[C@H]5C)cc4)CC3)nn12	52 nM	> 34800 nM
CN1CCN(c2nc(-c3cnc4ccccc4n3)cc3ccccc23)CC1	4980 nM	10600 nM
c1ccc2c3c([nH]c2c1)C(c1ccc(C2NCCc4c2[nH]c2ccccc42)cc1)NCC3 (stereo not drawn)	367 nM	1340 nM
COc1cc2c(=O)[nH]c3cc([N+](=O)[O-])ccc3c2cc1[N+](=O)[O-]	1030 nM	4180 nM
CCN(CC)Cc1cc2[nH]c3c4ccc(Cl)cc4ncc3c2cc1OC	1870 nM and 1520 nM	3640 nM and 3000 nM
CC[n+]1c(/C=C/C=C2\N(C)c3ccccc3C2(C)C)sc2ccccc21	2770 nM	8440 nM
Cc1cc([N+](=O)[O-])c2ccccc2[n+]1[O-]	180 nM and 121 nM	512 nM and 369 nM
